In US5593970A, “Heterocyclic anthracycline analogs” (priority 1994, dated 1997):
Structures can show the parent of a compound that is named as a salt. Where two headings read alike, the source gives them in different places.

How the values were obtained:
Experiment in all cases: Microculture tetrazolium assay
Format in all cases: cell-based
SKVLB = conditions: for VLB/OV3: IC50 ratio SKVLB/SKOV3; for IC50: SKVLB
T47D = conditions: read-out: IC50
LOX = system: LOX
HT29 = system: HT29
SKOV3 = system: SKOV3
[1] = Homo sapiens, HT-29, HT29, read-out: IC50
[2] = Homo sapiens, SK-OV-3, SKOV3, read-out: IC50

| IC50 (SKVLB; read-out: IC50) [µM] | IC50 (T47D; Homo sapiens) [µM] | IC50 (LOX; read-out: IC50) [µM] | IC50 (HT29; [1]) [µM] | IC50 (SKOV3; [2]) [µM] | IC50 (SKVLB; listed as BCH1158, read-out: IC50) [µM] | IC50 (T47D) [µM] | IC50 (HT29; HT29, read-out: IC50) [µM] | IC50 (SKOV3; SKOV3, read-out: IC50) [µM] | Compound | VLB/OV3 (SKVLB) | IC50 (HT29; Homo sapiens, HT-29, HT29) [µM] | IC50 (SKOV3; Homo sapiens, SK-OV-3, SKOV3) [µM] | IC50 (SKVLB) [µM] | VLB/OV3 (SKVLB; listed as BCH1158) | IC50 (LOX) [µM] |
| --- | --- | --- | --- | --- | --- | --- | --- | --- | --- | --- | --- | --- | --- | --- | --- |
| 73.7 | 28.3 | 1.98 | 25.4 | 23.6 | – | – | – | – | C[C@@H]1O[C@@H](O[C@@H]2O[C@@H](C(=O)CO)CC3=C2C(=O)c2cc4ccccc4c(O)c2C3=O)C[C@H](NC(=O)C(F)(F)F)[C@@H]1O [BCH-1182, (1 'S,1S,3R)-1,2,3,4,5,12-hexahydro-6-hydroxy-3-hydroxy-aceto-1-N-trifluoroacetyl-L-daunosamine-(2-oxo) naphthacene-5,12-dione] | 3.12 | – | – | – | – | – |
| 20.5 | 18.1 | 18.5 | 15.3 | 21 | – | – | – | – | CC(=O)OCC1(C2CC3=C(C(=O)c4cc5ccccc5c(O)c4C3=O)C(O[C@H]3C[C@H](NC(=O)C(F)(F)F)[C@H](O)[C@H](C)O3)O2)OCCCO1 (single isomer, unassigned) [BCH-747] | 0.98 | – | – | – | – | – |
| 8.41 | 7.73 | 10.1 | 5.99 | 4.9 | – | – | – | – | CC(=O)OCC1(C2CC3=C(C(=O)c4c(cc5ccccc5c4O)C3=O)C(O[C@H]3C[C@H](NC(=O)C(F)(F)F)[C@H](O)[C@H](C)O3)O2)OCCCO1 (some centres unmarked) [BCH-748] | 1.72 | – | – | – | – | – |
| 32.4 | 47.9 | 31.2 | 31.3 | 27.9 | – | – | – | – | C[C@@H]1O[C@@H](O[C@@H]2O[C@@H](C(C)(F)F)CC3=C2C(=O)c2cc4ccccc4c(O)c2C3=O)C[C@H](O)[C@@H]1O (mixture of isomers) [BCH-1663, (1'S,1S,3S) and (1'S,1R, 3R)-5,12-dioxo-3-(1,1-difluoroethyl)-6-hydroxy-1-(2',6'-dideoxy-L-lyxohexopyranose)-3,4,5,12-tetrahydroanthraceno-[2,3-c]-pyran] | 1.16 | – | – | – | – | – |
| 1.7 | 1.4 | 0.36 | 0.64 | 0.86 | – | – | – | – | CCC1COC(OC2CC(N)C(O)C(C)O2)c2c(O)c3c(c(O)c21)C(=O)c1ccccc1C3=O [BCH-2086, (1'S,1R,4R)-5,12-Dihydroxy-4-ethyl-1-(2',3',6'-trideoxy-3'-amino-L-lyxohexopyranose)-1,2,3,4-tetrahydro-(2-oxygen)-naphthacene-6,11-dione-hydrochloride] | – | – | – | – | – | – |
| 6 | 0.871 | 3.24 | 2.5 | 3.59 | – | – | – | – | C[C@@H]1O[C@@H](O[C@@H]2OCCC3=C2C(=O)c2cc4ccccc4c(O)c2C3=O)C[C@H](NC(=O)C(F)(F)F)[C@@H]1O [BCH-1647] | 1.67 | – | – | – | – | – |
| 100 | 100 | 48 | 38.4 | 38.5 | – | – | – | – | COCOCC(=O)C1CC2=C(C(=O)c3cc4ccccc4c(O)c3C2=O)C(O[C@H]2C[C@H](NC(=O)C(F)(F)F)[C@H](OC(=O)c3ccc([N+](=O)[O-])cc3)[C@H](C)O2)O1 (some centres unmarked) [BCH-732] | – | – | – | – | – | – |
| 100 | 78.3 | 84.6 | 64.1 | 100 | – | – | – | – | COC(=O)C1CC2=C(CS1)C(=O)c1c(cc3ccccc3c1O)C2=O (centres unmarked) [BCH-1150] | – | – | – | – | – | – |
| 1.64 | 3.89 | 1.49 | 0.727 | 3.15 | – | – | – | – | CC(=O)[C@H]1CC2=C(C(=O)c3cc4ccccc4c(O)c3C2=O)[C@H](O[C@H]2C[C@H](NC(=O)C(F)(F)F)[C@H](O)[C@H](C)O2)O1 [BCH-724, (1S',1S,3R)-Methyl-(6-hydroxy-1-(3'-trifluoroacyldaunosamine)-5,12-dioxo-3,4,5,12-tetrahydroanthraceno[2,3-C]pyran-3-yl) ketone] | 0.52 | – | – | – | – | – |
| 3.4 | 1.6 | 0.58 | 0.8 | 1.1 | – | – | – | – | CC[C@H]1CO[C@H](O[C@H]2C[C@H](N)[C@H](O)[C@H](C)O2)c2c(O)c3c(c(O)c21)C(=O)c1ccccc1C3=O (mixture of isomers) [BCH-2085, (1'S,1S,4S) and (1'S,1R,4R)-5,12-dihydroxy-4-ethyl-1-(2',3',6'-trideoxy-3'-amino-L-lyxohexopyranose)-1,2,3,4-tetrahydro-(2-oxygen)-naphthacene-6,11-dione-hydrochloride] | – | – | – | – | – | – |
| – | – | > 100 | – | – | 6.2 | 25.7 | 8.25 | 8.35 | CC(=O)C1CC2=C(C(=O)c3cc4ccccc4c(O)c3C2=O)C(OC2CC(N=[N+]=[N-])C(I)C(C)O2)O1 (centres unmarked) [BCH-1158] | – | – | – | – | 0.74 | – |
| 94.2 | 84.4 | 100 | 100 | 88 | – | – | – | – | C=CC1CC2=C(C(=O)c3cc4ccccc4c(O)c3C2=O)C(O[C@H]2C[C@H](NC(=O)C(F)(F)F)[C@H](O)[C@H](C)O2)O1 (some centres unmarked) [BCH-1168] | 1.07 | – | – | – | – | – |
| 6.72 | 2.14 | 2.3 | 2.69 | 1.56 | – | – | – | – | C[C@@H]1O[C@@H](O[C@@H]2O[C@@H]([C@H](O)CO)CC3=C2C(=O)c2cc4ccccc4c(O)c2C3=O)C[C@H](NC(=O)C(F)(F)F)[C@@H]1O [BCH-1997] | 4.31 | – | – | – | – | – |
| 8.62 | – | 1.91 | – | – | – | 4.41 | 1.96 | 2.74 | CC(=O)[C@H]1CC2=C(C(=O)c3cc4ccccc4c(O)c3C2=O)[C@@H](OC[C@@H]2COC(C)(C)O2)S1 [BCH-1994] | 3.15 | – | – | – | – | – |

More lines, now with the values behind:

| Compound | IC50 (SKVLB; read-out: IC50) [µM] | IC50 (T47D; Homo sapiens) [µM] | IC50 (LOX; read-out: IC50) [µM] | IC50 (HT29; [1]) [µM] | IC50 (SKOV3; [2]) [µM] | IC50 (SKVLB; listed as BCH1158, read-out: IC50) [µM] | IC50 (T47D) [µM] | IC50 (HT29; HT29, read-out: IC50) [µM] | IC50 (SKOV3; SKOV3, read-out: IC50) [µM] | VLB/OV3 (SKVLB) | IC50 (HT29; Homo sapiens, HT-29, HT29) [µM] | IC50 (SKOV3; Homo sapiens, SK-OV-3, SKOV3) [µM] | IC50 (SKVLB) [µM] | VLB/OV3 (SKVLB; listed as BCH1158) | IC50 (LOX) [µM] |
| --- | --- | --- | --- | --- | --- | --- | --- | --- | --- | --- | --- | --- | --- | --- | --- |
| C[C@@H]1O[C@@H](O[C@H]2O[C@H](C(=O)COC(=O)C(C)(C)C)CC3=C2C(=O)c2cc4ccccc4c(O)c2C3=O)C[C@H](NC(=O)C(F)(F)F)[C@@H]1O [BCH-1136, (1'S,1R,3S)-1,2,3,4,5,12-hexahydro-6-hydroxy-3-trimethylacetoxyaceto-1-N-trifluoroacetyl-L-daunosamine-(2-oxo)-naphthacene-5,12-dione] | 23.1 | 18.9 | 12.3 | 11.5 | 18 | – | – | – | – | 1.28 | – | – | – | – | – |
| C[C@@H]1O[C@@H](O[C@H]2OCCC3=C2C(=O)c2cc4ccccc4c(O)c2C3=O)C[C@H](NC(=O)C(F)(F)F)[C@@H]1O [BCH-1646] | 6.56 | 2.81 | 2.96 | – | – | – | – | – | – | 1.31 | 5.92 | 4.99 | – | – | – |
| C=CC[C@H]1CC2=C(C(=O)c3cc4ccccc4c(O)c3C2=O)[C@H](O[C@H]2C[C@H](N)[C@H](O)[C@H](C)O2)O1 [BCH-2006, (1'S,1S,3S)-3-(6-hydroxy-1-(2',3',6'-trideoxy-3'-amino-4'-hydroxy-L-lyxohexopyranose)-5,12-dioxo-3,4,5,12-tetrahydroanthraceno-[2,3-c]pyran-3-yl)propene hydrochloride] | 3.73 | 1.92 | 0.484 | 0.41 | 0.882 | – | – | – | – | 4.23 | – | – | – | – | – |
| COCC1(COC)CC2=C(C(=O)c3cc4ccccc4c(O)c3C2=O)[C@H](O[C@H]2C[C@H](N)[C@H](O)[C@H](C)O2)O1 [BCH-1991, (1'S,1S)-5,12-dioxo-6-hydroxy-3,3-bis-methoxymethyl-1-(2',3',6'-trideoxy-3'-amino-L-lyxohexopyranose)-3,4,5,12-tetrahydroanthraceno-[2,3-c]-pyran hydrochloride] | – | 0.918 | 1.29 | 1.72 | 1.47 | – | – | – | – | 3.77 | – | – | 5.54 | – | – |
| CC(=O)C1CC2=C(C(=O)c3cc4ccccc4c(O)c3C2=O)C(OCCN)S1 (centres unmarked) [BCH-1628] | – | 2.89 | 3.52 | 3.43 | 2.71 | – | – | – | – | 2.18 | – | – | 5.92 | – | – |
| CCOC(=O)C1CC2=C(CO1)C(=O)c1c(cc3ccccc3c1OC(C)=O)C2=O (centres unmarked) [BCH-656, Ethyl[11-acetoxy-5,12-dioxo-3,4,5,12-tetrahydro-anthraceno[2,3-c]pyran-3-yl]formate] | 82.9 | 65.6 | 68.9 | 86.6 | 76.7 | – | – | – | – | 1.08 | – | – | – | – | – |
| CC(=O)[C@@H]1CC2=C(C(=O)c3cc4ccccc4c(O)c3C2=O)[C@@H](O[C@H]2C[C@H](O)[C@H](O)[C@H](C)O2)O1 [BCH-1124, (1'S,1R,3S)-Methyl-[6-hydroxy-1-(2',3',6'-trideoxy-3',4'-dihydroxy-L-lyxohexopyranose)-5,12-dioxo-2,3,5,12-tetrahydroxyanthraceno(2,3-C)pyran-3-yl]ketone] | 2.17 | 6.05 | – | 1.46 | 4.98 | – | – | – | – | 0.44 | – | – | – | – | 1.88 |
| C[C@@H]1O[C@@H](O[C@@H]2O[C@@H](C#N)CC3=C2C(=O)c2cc4ccccc4c(O)c2C3=O)C[C@H](NC(=O)C(F)(F)F)[C@@H]1O [BCH-2008, (1'S,1S,3R)-3-(6-hydroxy-1-(2',3',6'-trideoxy-3'-trifluoroacetamido-4'-hydroxy-L-lyxohexopyranose)-5,12-dioxo-3,4,5,12-tetrahydroanthraceno-[2,3-c]pyran-3-yl)nitrile] | 2.18 | 0.387 | 0.154 | 0.0625 | 0.332 | – | – | – | – | 6.57 | – | – | – | – | – |
| (1'S,1R,3S) and (1'S,1S,3R)-Methyl-1-(2',3',6'-trideoxy-3-trifluoroacetamido-4'-O-p-nitrobenzoyl-L-lyxohexopyranose)-6,11'dioxo-5'-hydroxy-12-acetoxy-3,4,6,11-tetrahydroanthra-ceno-[2,3-C]-pyran-3-yl) ketone [BCH-1163] | 11.6 | – | 26.1 | – | – | – | 5 | 4.67 | 11 | 1.05 | – | – | – | – | – |
